This passage reports IC50 results from patent publication US20240299385A1 (ReWind Therapeutics NV, priority 2021, published 2024).

This assay concerns the target T1, human GPR17 receptor (Homo sapiens, UniProt Q13304).
T1 construct: host or cells: HEK-293
As to the kind of experiment: Calcium mobilization functional assay (Fluo-8, FLIPR TETRA) in HEK-293 hGPR17 (Gα-q assay). Particulars: antagonism of MDL29,951 (~EC80) induced Ca2+ signal; cell line (HEK-293 hGPR17 or HEK-293 Suchi5 hGPR17) not given. Format: cell-based. The procedure, abridged:
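Fluo-8-loaded HEK-293 hGPR17 cells (60 min dye loading, room temperature) were preincubated with compound for twenty minutes, then challenged with agonist MDL29,951 at ~EC80, 500 nM. Intracellular calcium release via Gα-q was recorded as FLIPR fluorescence for a further 2 minutes; compounds tested in duplicate.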
(In general: Calcium assays in cells follow changes in intracellular calcium, usually with a dye or a luminescent sensor.)

T1 sequence (Q13304 whole entry): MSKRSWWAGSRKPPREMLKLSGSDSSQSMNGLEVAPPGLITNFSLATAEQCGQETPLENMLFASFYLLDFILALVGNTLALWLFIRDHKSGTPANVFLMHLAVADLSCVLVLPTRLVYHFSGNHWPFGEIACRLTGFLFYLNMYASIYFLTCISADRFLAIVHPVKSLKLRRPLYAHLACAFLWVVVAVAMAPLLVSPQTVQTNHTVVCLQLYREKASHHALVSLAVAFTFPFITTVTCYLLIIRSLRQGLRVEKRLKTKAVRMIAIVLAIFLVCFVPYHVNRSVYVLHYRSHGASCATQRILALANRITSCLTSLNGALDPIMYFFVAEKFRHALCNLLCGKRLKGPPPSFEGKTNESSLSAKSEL

What is called IC50 is the concentration that inhibits the measured activity by half. In the case of `O=S(=O)(Nc1cc(F)c(Cl)cc1F)c1c[nH]c(-c2ccccc2)c1` [Cpd 145, N-(4-chloro-2,5-difluoro-phenyl)-5-phenyl-1H-pyrrole-3-sulfonamide], the 50% inhibitory concentration (IC50) is 0.5 to 5 µM.

Take `O=S(=O)(Nc1cc(Cl)ncc1F)c1c[nH]c(-c2ccccc2)c1` [Cpd 146, N-(2-chloro-5-fluoro-4-pyridyl)-5-phenyl-1H-pyrrole-3-sulfonamide]: the half-maximal inhibitory concentration (IC50) lay within 5 to 50 µM.

In the case of `COc1nc(C(F)(F)F)ccc1NS(=O)(=O)c1c[nH]c(-c2ccccc2)c1` [Cpd 147, N-[2-methoxy-6-(trifluoromethyl)-3-pyridyl]-5-phenyl-1H-pyrrole-3-sulfonamide], the IC50 was in the range of 0.5 to 5 µM.

Regarding `O=S(=O)(Nc1cc(F)c(C(F)(F)F)cc1F)c1c[nH]c(-c2ncccc2F)c1` [Cpd 148, N-(2,5-difluoro-4-(trifluoromethyl)phenyl)-5-(3-fluoropyridin-2-yl)-1H-pyrrole-3-sulfonamide], the IC50 was under 0.5 µM.

Regarding `O=S(=O)(Nc1cccc2c1OCO2)c1c[nH]c(-c2ccccn2)c1` [Cpd 149, N-(1,3-benzodioxol-4-yl)-5-(2-pyridyl)-1H-pyrrole-3-sulfonamide], the IC50 is 0.5 to 5 µM.

In the case of `O=S(=O)(Nc1cc(F)c(C(F)(F)F)cc1F)c1c[nH]c(-c2ncccn2)c1` [Cpd 150, N-[2,5-difluoro-4-(trifluoromethyl)phenyl]-5-pyrimidin-2-yl-1H-pyrrole-3-sulfonamide], the IC50 was 0.5 to 5 µM.

As to `O=S(=O)(Nc1ccc(F)cc1F)c1c[nH]cc1Cc1ccccc1` [Cpd 151, 4-benzyl-N-(2,4-difluorophenyl)-1H-pyrrole-3-sulfonamide], the IC50 was in the range of 5 to 50 µM.

For `O=S(=O)(Nc1ccc(C(F)(F)F)nc1)c1c[nH]cc1Cc1ccccc1` [Cpd 152, 4-benzyl-N-[6-(trifluoromethyl)-3-pyridyl]-1H-pyrrole-3-sulfonamide], the 50% inhibitory concentration (IC50) was in the range of 5 to 50 µM.

Turning to `O=S(=O)(Nc1ccc(Cl)cc1F)c1c[nH]cc1Cc1ccccc1` [Cpd 153, 4-benzyl-N-(4-chloro-2-fluoro-phenyl)-1H-pyrrole-3-sulfonamide], the half-inhibitory concentration (IC50) is 5 to 50 µM.

As to `COc1cc(C(F)(F)F)ccc1NS(=O)(=O)c1c[nH]c(-c2ccccn2)c1` [Cpd 154, N-[2-methoxy-4-(trifluoromethyl)phenyl]-5-(2-pyridyl)-1H-pyrrole-3-sulfonamide], the IC50 was 0.5 to 5 µM.

With `Cc1cccnc1-c1cc(S(=O)(=O)Nc2cc(F)c(C(F)(F)F)cc2F)c[nH]1` [Cpd 155, N-[2,5-difluoro-4-(trifluoromethyl)phenyl]-5-(3-methyl-2-pyridyl)-1H-pyrrole-3-sulfonamide], the half-inhibitory concentration (IC50) was under 0.5 µM.

On to `Cn1ccnc1-c1cc(S(=O)(=O)Nc2cc(F)c(C(F)(F)F)cc2F)c[nH]1` [Cpd 156, N-[2,5-difluoro-4-(trifluoromethyl)phenyl]-5-(1-methylimidazol-2-yl)-1H-pyrrole-3-sulfonamide], for which the half-inhibitory concentration (IC50) is 0.5 to 5 µM.

`O=S(=O)(Nc1ccc(OC(F)(F)F)cc1F)c1c[nH]c(-c2ccccn2)c1` [Cpd 157, N-[2-fluoro-4-(trifluoromethoxy)phenyl]-5-(2-pyridyl)-1H-pyrrole-3-sulfonamide]: the concentration for half-maximal inhibition (IC50) fell in the range of 0.5 to 5 µM.

As to `O=S(=O)(Nc1cc(F)c(C(F)(F)F)cc1F)c1c[nH]cc1Cc1ccccc1` [Cpd 158, 4-benzyl-N-[2,5-difluoro-4-(trifluoromethyl)phenyl]-1H-pyrrole-3-sulfonamide], the IC50 was in the range of 0.5 to 5 µM.

On to `O=S(=O)(Nc1ccc(F)cc1F)c1c[nH]c(-c2ncccc2F)c1` [Cpd 160, N-(2,4-difluorophenyl)-5-(3-fluoro-2-pyridyl)-1H-pyrrole-3-sulfonamide], for which the concentration for half-maximal inhibition (IC50) is 5 to 50 µM.

Consider `COc1cc(C#N)ccc1NS(=O)(=O)c1c[nH]cc1Cc1ccccc1` [Cpd 161, 4-benzyl-N-(4-cyano-2-methoxy-phenyl)-1H-pyrrole-3-sulfonamide], for which the IC50 fell in the range of 5 to 50 µM.

In the case of `N#Cc1ccc(NS(=O)(=O)c2c[nH]cc2Cc2ccccc2)cc1` [Cpd 162, 4-benzyl-N-(4-cyanophenyl)-1H-pyrrole-3-sulfonamide], the 50% inhibitory concentration (IC50) lay within 0.5 to 5 µM.

Consider `O=S(=O)(Nc1ccccc1F)c1c[nH]cc1Cc1ccccc1` [Cpd 163, 4-benzyl-N-(2-fluorophenyl)-1H-pyrrole-3-sulfonamide], for which the IC50 fell in the range of 5 to 50 µM.

As for `O=S(=O)(Nc1ncc(Cl)cc1F)c1c[nH]c(-c2ccccn2)c1` [Cpd 164, N-(5-chloro-3-fluoro-2-pyridyl)-5-(2-pyridyl)-1H-pyrrole-3-sulfonamide], the IC50 was 0.5 to 5 µM.

For the compound `COc1cc(CC#N)ccc1NS(=O)(=O)c1c[nH]c(-c2ccccc2)c1` [Cpd 165, N-[4-(cyanomethyl)-2-methoxy-phenyl]-5-phenyl-1H-pyrrole-3-sulfonamide], the concentration for half-maximal inhibition (IC50) was in the range of 0.5 to 5 µM.

In the case of `N#Cc1cnc(NS(=O)(=O)c2c[nH]c(-c3ccccc3)c2)c(F)c1` [Cpd 166, N-(5-cyano-3-fluoro-2-pyridyl)-5-phenyl-1H-pyrrole-3-sulfonamide], the half-maximal inhibitory concentration (IC50) was 0.5 to 5 µM.

In the case of `COc1cc(Br)cnc1NS(=O)(=O)c1c[nH]c(-c2ccccn2)c1` [Cpd 167, N-(5-bromo-3-methoxy-2-pyridyl)-5-(2-pyridyl)-1H-pyrrole-3-sulfonamide], the IC50 was in the range of 0.5 to 5 µM.

As to `O=S(=O)(Nc1ncc(Br)cc1F)c1c[nH]c(-c2ccccc2)c1` [Cpd 168, N-(5-bromo-3-fluoro-2-pyridyl)-5-phenyl-1H-pyrrole-3-sulfonamide], the IC50 lay in the range of 0.5 to 5 µM.

`N#CCc1cnc(NS(=O)(=O)c2c[nH]c(-c3ccccc3)c2)c(F)c1` [Cpd 169, N-[5-(cyanomethyl)-3-fluoro-2-pyridyl]-5-phenyl-1H-pyrrole-3-sulfonamide]: the IC50 was 5 to 50 µM.

As to `COc1cccnc1-c1cc(S(=O)(=O)Nc2cc(F)c(C(F)(F)F)cc2F)c[nH]1` [Cpd 170, N-[2,5-difluoro-4-(trifluoromethyl)phenyl]-5-(3-methoxy-2-pyridyl)-1H-pyrrole-3-sulfonamide], the IC50 lay in the range of 0.5 to 5 µM.

For the compound `N#Cc1ccc(NS(=O)(=O)c2c[nH]cc2Cc2cccc(F)c2)c(F)c1` [Cpd 171, N-(4-cyano-2-fluoro-phenyl)-4-[(3-fluorophenyl)methyl]-1H-pyrrole-3-sulfonamide], the IC50 is under 0.5 µM.

Regarding `Cc1cc(F)c(NS(=O)(=O)c2c[nH]c(-c3ccccn3)c2)cc1F` [Cpd 173, N-(2,5-difluoro-4-methyl-phenyl)-5-(2-pyridyl)-1H-pyrrole-3-sulfonamide], the IC50 is under 0.5 µM.

Consider `O=S(=O)(Nc1cc(F)c(-c2ccccc2)cc1F)c1c[nH]c(-c2ccccn2)c1` [Cpd 174, N-(2,5-difluoro-4-phenyl-phenyl)-5-(2-pyridyl)-1H-pyrrole-3-sulfonamide], for which the IC50 is 5 to 50 µM.

On to `COc1cc(C(F)(F)F)cnc1NS(=O)(=O)c1c[nH]c(-c2ccccc2)c1` [Cpd 175, N-[3-methoxy-5-(trifluoromethyl)-2-pyridyl]-5-phenyl-1H-pyrrole-3-sulfonamide], for which the IC50 was in the range of 0.5 to 5 µM.

Take `O=S(=O)(Nc1ncc(C(F)(F)F)cc1F)c1c[nH]c(-c2ccccc2F)c1` [Cpd 176, 5-(2-fluorophenyl)-N-[3-fluoro-5-(trifluoromethyl)-2-pyridyl]-1H-pyrrole-3-sulfonamide]: the half-inhibitory concentration (IC50) was in the range of 0.5 to 5 µM.

Take `N#Cc1ccc(NS(=O)(=O)c2c[nH]cc2Cc2ccc(F)cc2)c(F)c1` [Cpd 177, N-(4-cyano-2-fluoro-phenyl)-4-[(4-fluorophenyl)methyl]-1H-pyrrole-3-sulfonamide]: the IC50 was under 0.5 µM.

As to `O=S(=O)(Nc1cc(F)c(F)cc1F)c1c[nH]c(-c2ccccn2)c1` [Cpd 179, 5-(2-pyridyl)-N-(2,4,5-trifluorophenyl)-1H-pyrrole-3-sulfonamide], the IC50 lay in the range of 0.5 to 5 µM.

On to `COc1cccc(F)c1-c1cc(S(=O)(=O)Nc2cc(F)c(C(F)(F)F)cc2F)c[nH]1` [Cpd 180, N-[2,5-difluoro-4-(trifluoromethyl)phenyl]-5-(2-fluoro-6-methoxy-phenyl)-1H-pyrrole-3-sulfonamide], for which the IC50 lay within 0.5 to 5 µM.

As to `O=S(=O)(Nc1ccc(Cl)cc1F)c1c[nH]c(-c2ccccn2)c1` [Cpd 181, N-(4-chloro-2-fluoro-phenyl)-5-(2-pyridyl)-1H-pyrrole-3-sulfonamide], the IC50 fell in the range of 0.5 to 5 µM.

On to `N#Cc1ccc(NS(=O)(=O)c2c[nH]cc2Cc2ccccc2F)c(F)c1` [Cpd 182, N-(4-cyano-2-fluoro-phenyl)-4-[(2-fluorophenyl)methyl]-1H-pyrrole-3-sulfonamide], for which the IC50 was 0.5 to 5 µM.

As for `COc1cc(F)c(NS(=O)(=O)c2c[nH]c(-c3ccccn3)c2)cc1F` [Cpd 183, N-(2,5-difluoro-4-methoxy-phenyl)-5-(2-pyridyl)-1H-pyrrole-3-sulfonamide], the IC50 is 0.5 to 5 µM.

As to `N#Cc1ccc(NS(=O)(=O)c2c[nH]cc2Cc2cccnc2)c(F)c1` [Cpd 184, N-(4-cyano-2-fluoro-phenyl)-4-(3-pyridylmethyl)-1H-pyrrole-3-sulfonamide], the IC50 was 0.5 to 5 µM.

For `C#Cc1cc(F)c(NS(=O)(=O)c2c[nH]c(-c3ccccn3)c2)cc1F` [Cpd 185, N-(4-ethynyl-2,5-difluoro-phenyl)-5-(2-pyridyl)-1H-pyrrole-3-sulfonamide], the half-inhibitory concentration (IC50) was 0.5 to 5 µM.

For `O=S(=O)(Nc1ccc(C(F)(F)F)nc1F)c1c[nH]c(-c2ccccc2)c1` [Cpd 186, N-[2-fluoro-6-(trifluoromethyl)-3-pyridyl]-5-phenyl-1H-pyrrole-3-sulfonamide], the IC50 lay in the range of 0.5 to 5 µM.

Regarding `O=S(=O)(Nc1cc2cccnc2cc1F)c1c[nH]c(-c2ccccc2)c1` [Cpd 187, N-(7-fluoro-6-quinolyl)-5-phenyl-1H-pyrrole-3-sulfonamide], the IC50 was in the range of 0.5 to 5 µM.

`O=S(=O)(Nc1ccc(OC(F)F)nc1F)c1c[nH]c(-c2ccccc2)c1` [Cpd 188, N-[6-(difluoromethoxy)-2-fluoro-3-pyridyl]-5-phenyl-1H-pyrrole-3-sulfonamide]: the IC50 was in the range of 0.5 to 5 µM.
